According to the supplement of paper PMC12463676, “Small-molecule dissolution of stress granules by redox modulation benefits ALS models” (Nature Chemical Biology, 2025):

What was measured:
potassium arsenate = compound: O=[As]([O-])(O)O.[K+] [potassium arsenate]; assay: thermal stability z-score vs DMSO; higher = more thermally stabilized by treatment; details: HeLa; arsenate concentration 1 mM
Method: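 Cellular thermal proteome profiling in HeLa cells treated with 1 mM arsenate for 1 h (DMSO pretreatment), heated to ten temperatures (37-66.3 °C). Soluble protein was quantified by TMT mass spectrometry relative to DMSO controls; the thermal stability score was transformed to a z-score; mean of n = 3 experiments.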

lipoamide = compound: NC(=O)CCCCC1CCSS1 [lipoamide]; assay: as above; details: HeLa, lipoamide concentration 100 µM
Method: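 Cellular thermal proteome profiling in HeLa cells. Cells were treated with 100 µM lipoamide for 1 h, with or without 1 mM arsenate for a further 1 h, then heated to ten temperatures (37-66.3 °C), and soluble protein was quantified by TMT mass spectrometry relative to 0.1% DMSO controls. The thermal stability score (sum of log2 fold changes minus the abundance score) was transformed to a z-score; mean of n = 3 experiments.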

[1] = arsenate co-treatment: 1 mM arsenate 1 h
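Note: each temperature applied for 3 min, abundance score taken as mean log2 fold change at the two lowest temperatures, z-score obtained by mean subtraction and division by SD.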

UniProt Q9Y6W3, sequence (Q9Y6W3 whole entry): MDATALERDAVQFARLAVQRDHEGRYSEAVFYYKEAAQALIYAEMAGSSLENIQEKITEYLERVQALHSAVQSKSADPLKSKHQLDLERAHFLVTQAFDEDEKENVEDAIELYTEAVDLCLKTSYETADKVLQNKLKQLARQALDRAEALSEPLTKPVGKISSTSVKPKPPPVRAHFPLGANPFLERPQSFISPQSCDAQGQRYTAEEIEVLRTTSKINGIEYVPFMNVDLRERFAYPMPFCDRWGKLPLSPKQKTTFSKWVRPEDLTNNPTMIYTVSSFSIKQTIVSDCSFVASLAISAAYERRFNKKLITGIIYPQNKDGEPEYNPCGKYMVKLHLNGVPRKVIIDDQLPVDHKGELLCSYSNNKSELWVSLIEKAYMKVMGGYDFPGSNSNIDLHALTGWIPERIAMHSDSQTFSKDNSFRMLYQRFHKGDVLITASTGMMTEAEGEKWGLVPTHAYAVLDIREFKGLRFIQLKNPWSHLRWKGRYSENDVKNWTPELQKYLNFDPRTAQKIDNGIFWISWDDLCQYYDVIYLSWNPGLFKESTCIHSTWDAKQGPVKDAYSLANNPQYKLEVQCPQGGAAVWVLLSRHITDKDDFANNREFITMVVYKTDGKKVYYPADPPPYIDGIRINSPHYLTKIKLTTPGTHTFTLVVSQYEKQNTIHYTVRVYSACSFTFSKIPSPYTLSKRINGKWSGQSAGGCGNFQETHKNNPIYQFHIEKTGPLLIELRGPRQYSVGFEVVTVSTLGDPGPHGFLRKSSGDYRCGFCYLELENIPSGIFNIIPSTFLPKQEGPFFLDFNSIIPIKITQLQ
UniProt Q9H4A3, sequence (Q9H4A3 whole entry, looked up): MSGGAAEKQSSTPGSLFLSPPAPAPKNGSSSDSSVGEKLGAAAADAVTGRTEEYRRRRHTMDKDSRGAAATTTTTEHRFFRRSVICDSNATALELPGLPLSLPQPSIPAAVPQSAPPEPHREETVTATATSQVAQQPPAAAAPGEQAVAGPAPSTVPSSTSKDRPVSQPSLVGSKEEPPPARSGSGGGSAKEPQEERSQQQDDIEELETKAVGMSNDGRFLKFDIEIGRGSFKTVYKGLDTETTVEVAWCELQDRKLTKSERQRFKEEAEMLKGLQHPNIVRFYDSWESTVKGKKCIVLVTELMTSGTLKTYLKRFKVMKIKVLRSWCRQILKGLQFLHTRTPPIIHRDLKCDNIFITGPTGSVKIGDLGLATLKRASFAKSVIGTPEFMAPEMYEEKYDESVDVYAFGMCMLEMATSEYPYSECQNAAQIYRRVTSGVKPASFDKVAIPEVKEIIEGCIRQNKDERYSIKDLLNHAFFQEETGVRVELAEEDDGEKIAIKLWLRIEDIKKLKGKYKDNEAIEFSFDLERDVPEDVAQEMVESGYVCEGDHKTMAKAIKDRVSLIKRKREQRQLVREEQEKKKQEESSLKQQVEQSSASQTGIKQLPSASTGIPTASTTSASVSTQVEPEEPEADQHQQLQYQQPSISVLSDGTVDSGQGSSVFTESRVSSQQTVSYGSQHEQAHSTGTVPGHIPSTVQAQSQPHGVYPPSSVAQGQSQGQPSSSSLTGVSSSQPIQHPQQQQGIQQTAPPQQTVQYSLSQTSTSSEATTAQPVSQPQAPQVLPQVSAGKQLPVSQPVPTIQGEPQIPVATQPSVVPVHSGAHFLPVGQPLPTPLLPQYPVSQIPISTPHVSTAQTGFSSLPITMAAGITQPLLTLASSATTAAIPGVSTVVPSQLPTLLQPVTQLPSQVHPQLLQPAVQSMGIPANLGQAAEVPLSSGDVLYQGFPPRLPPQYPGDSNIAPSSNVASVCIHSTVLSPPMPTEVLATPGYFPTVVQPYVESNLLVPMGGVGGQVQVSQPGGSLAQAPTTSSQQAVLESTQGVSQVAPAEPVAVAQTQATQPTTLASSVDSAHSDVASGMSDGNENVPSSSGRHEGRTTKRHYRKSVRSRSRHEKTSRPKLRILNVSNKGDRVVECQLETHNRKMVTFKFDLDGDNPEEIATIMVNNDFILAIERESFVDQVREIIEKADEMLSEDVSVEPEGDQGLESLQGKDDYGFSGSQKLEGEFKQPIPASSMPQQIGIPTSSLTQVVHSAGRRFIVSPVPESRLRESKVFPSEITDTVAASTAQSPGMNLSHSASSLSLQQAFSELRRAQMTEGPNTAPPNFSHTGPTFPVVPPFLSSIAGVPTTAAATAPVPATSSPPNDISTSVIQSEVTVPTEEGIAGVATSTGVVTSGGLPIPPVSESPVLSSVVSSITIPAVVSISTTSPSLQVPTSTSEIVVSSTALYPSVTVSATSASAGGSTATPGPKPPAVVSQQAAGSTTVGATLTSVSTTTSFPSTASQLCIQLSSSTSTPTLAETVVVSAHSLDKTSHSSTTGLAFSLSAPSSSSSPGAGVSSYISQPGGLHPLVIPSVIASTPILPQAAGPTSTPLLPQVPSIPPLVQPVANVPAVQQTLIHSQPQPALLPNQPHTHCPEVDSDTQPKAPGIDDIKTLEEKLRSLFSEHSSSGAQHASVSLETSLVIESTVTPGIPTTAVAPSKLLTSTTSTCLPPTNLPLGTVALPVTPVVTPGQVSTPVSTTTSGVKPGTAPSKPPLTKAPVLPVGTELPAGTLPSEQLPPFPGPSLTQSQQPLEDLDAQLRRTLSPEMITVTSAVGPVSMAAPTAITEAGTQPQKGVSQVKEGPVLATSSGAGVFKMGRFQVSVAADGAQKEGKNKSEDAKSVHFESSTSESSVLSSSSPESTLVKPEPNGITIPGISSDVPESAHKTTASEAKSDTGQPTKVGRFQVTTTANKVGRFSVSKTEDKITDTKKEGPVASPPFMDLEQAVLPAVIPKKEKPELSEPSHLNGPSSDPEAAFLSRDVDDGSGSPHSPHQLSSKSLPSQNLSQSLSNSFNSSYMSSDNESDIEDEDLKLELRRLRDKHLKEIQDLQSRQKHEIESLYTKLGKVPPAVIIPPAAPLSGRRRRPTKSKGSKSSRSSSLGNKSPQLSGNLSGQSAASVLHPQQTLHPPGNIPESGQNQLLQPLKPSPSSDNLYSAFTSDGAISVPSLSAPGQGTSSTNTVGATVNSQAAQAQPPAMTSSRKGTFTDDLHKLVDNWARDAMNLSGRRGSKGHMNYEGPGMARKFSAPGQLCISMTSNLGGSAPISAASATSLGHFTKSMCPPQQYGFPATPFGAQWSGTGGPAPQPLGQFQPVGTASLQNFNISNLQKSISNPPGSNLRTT
UniProt Q13362, sequence (Q13362 whole entry, looked up): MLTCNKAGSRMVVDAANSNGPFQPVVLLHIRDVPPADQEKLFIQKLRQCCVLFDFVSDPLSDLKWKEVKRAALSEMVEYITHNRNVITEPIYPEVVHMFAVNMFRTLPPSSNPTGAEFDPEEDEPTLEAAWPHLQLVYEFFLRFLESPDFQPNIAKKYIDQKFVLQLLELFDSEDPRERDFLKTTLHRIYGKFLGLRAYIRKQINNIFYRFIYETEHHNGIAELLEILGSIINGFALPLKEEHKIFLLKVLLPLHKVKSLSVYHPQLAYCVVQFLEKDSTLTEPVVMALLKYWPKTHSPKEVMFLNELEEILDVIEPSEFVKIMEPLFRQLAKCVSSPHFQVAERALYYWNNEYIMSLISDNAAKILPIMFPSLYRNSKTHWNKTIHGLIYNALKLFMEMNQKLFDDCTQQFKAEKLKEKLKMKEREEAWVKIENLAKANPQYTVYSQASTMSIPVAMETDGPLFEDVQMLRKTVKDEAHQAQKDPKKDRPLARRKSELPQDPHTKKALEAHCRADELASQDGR
UniProt P28799, sequence (P28799 whole entry): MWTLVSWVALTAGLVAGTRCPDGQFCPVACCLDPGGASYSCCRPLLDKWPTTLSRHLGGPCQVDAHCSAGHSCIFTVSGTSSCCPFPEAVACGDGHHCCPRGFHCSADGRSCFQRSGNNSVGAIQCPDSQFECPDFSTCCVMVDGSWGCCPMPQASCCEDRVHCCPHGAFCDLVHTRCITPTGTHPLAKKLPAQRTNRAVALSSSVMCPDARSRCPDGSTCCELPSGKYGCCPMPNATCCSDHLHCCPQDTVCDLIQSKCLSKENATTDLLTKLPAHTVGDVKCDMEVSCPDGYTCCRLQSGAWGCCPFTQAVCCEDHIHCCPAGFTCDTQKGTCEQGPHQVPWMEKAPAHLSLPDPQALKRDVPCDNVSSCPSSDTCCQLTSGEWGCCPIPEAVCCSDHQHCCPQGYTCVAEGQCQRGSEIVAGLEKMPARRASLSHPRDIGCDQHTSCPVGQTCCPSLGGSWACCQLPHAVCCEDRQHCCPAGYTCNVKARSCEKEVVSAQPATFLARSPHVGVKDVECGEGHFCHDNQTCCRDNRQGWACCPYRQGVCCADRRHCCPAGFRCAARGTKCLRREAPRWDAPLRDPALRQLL
UniProt Q9GZV5, sequence (Q9GZV5 whole entry): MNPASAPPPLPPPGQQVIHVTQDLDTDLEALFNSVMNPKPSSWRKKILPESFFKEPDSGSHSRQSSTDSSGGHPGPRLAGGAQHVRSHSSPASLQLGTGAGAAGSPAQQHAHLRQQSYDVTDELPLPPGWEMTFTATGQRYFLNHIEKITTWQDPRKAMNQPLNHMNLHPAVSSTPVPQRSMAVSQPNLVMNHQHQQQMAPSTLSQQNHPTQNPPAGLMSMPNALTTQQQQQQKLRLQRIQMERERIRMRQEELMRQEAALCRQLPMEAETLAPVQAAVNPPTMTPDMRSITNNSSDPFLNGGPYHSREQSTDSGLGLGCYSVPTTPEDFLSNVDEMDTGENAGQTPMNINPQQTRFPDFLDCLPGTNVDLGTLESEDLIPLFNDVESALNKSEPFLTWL
UniProt P60468, sequence (P60468 whole entry): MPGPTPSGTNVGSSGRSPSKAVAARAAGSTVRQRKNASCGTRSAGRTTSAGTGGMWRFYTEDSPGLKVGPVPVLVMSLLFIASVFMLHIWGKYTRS
UniProt P48047, sequence (P48047 whole entry): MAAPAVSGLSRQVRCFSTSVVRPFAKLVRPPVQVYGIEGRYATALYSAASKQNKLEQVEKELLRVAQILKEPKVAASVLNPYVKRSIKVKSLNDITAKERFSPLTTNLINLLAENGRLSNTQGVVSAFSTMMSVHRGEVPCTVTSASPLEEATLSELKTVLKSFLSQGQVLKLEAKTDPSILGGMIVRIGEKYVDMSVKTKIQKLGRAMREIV

Target	thermal stability z-score (potassium arsenate)	thermal stability z-score (lipoamide; [1])	thermal stability z-score (lipoamide; arsenate co-treatment: none)
STK38L (UniProt Q9Y2H1)	0.201	0.0467	0.0651
PKN2 (UniProt Q16513)	0.144	0.0683	0.467
APC (UniProt P25054)	0.816	0.728	0.273
FHL2 (UniProt Q14192)	-6.31	-1.64	-0.905
ARHGAP17 (UniProt Q68EM7)	0.874	0.0634	0.493
NFXL1 (UniProt Q6ZNB6)	-0.813	-0.724	-0.558
TRAPPC12 (UniProt Q8WVT3)	0.0727	-0.757	-1.04
SAR1A (UniProt Q9NR31)	0.248	0.174	0.266
GCLM (UniProt P48507)	2.05	1.62	0.394
PLEKHB2 (UniProt Q96CS7)	0.675	-0.698	-0.101
NBEAL2 (UniProt Q6ZNJ1)	0.0522	-0.0914	0.0428
OTULIN (UniProt Q96BN8)	-0.452	-0.269	-0.186
CEP152 (UniProt O94986)	0.269	-0.185	-0.184
NIF3L1 (UniProt Q9GZT8)	0.115	-0.14	-0.407
GEMIN4 (UniProt P57678)	-0.0793	-0.347	-0.228
EAF1 (UniProt Q96JC9)	-0.000349	1.02	0.0799
TXN2 (UniProt Q99757)	2.39	-0.504	0.00983
SUN2 (UniProt Q9UH99)	-0.0506	-1.43	-1.36
WNK1 (UniProt Q9H4A3)	0.386	0.149	-0.0327
CASP4 (UniProt P49662)	0.496	0.133	0.419
DMXL2 (UniProt Q8TDJ6)	0.00642	-0.191	-0.105
ARL3 (UniProt P36405)	-0.424	-0.325	-0.435
NUDT5 (UniProt Q9UKK9)	0.191	0.871	0.881
ZNF384 (UniProt Q8TF68)	-0.241	-0.017	0.00673
APOBEC3C (UniProt Q9NRW3)	-0.53	-0.418	-0.453
OSBPL3 (UniProt Q9H4L5)	-0.969	-1.67	-0.909
LMBRD2 (UniProt Q68DH5)	-0.111	-0.904	-0.0118
ATP5O (UniProt P48047)	-0.119	0.0702	-0.283

Target	thermal stability z-score (potassium arsenate)	thermal stability z-score (lipoamide; [1])	thermal stability z-score (lipoamide; arsenate co-treatment: none)
CYB561A3 (UniProt Q8NBI2)	-0.949	-0.299	-0.521
ATP5J (UniProt P18859)	1.53	2.44	1.93
JMY (UniProt Q8N9B5)	-0.323	-0.0736	-0.168
SEC61B (UniProt P60468)	0.265	0.911	0.44
JMJD1C (UniProt Q15652)	-0.398	0.559	-0.396
TIAL1 (UniProt Q01085)	-1.23	-0.227	0.0243
CDC23 (UniProt Q9UJX2)	-0.726	-0.546	-0.315
TRIM11 (UniProt Q96F44)	-1.05	-0.68	-1.71
NUDCD1 (UniProt Q96RS6)	-0.0861	-0.287	-0.282
GRN (UniProt P28799)	0.505	0.151	-0.477
HUS1 (UniProt O60921)	-0.902	-0.436	-0.56
ATP2B1 (UniProt P20020)	-0.146	0.446	0.697
PHKA2 (UniProt P46019)	-0.0062	-0.174	0.096
DHX57 (UniProt Q6P158)	-0.286	-0.125	-0.0979
ZZEF1 (UniProt O43149)	0.0396	0.044	0.201
PPP2R5C (UniProt Q13362)	-0.0211	1.38	0.649
PSMG2 (UniProt Q969U7)	2.01	0.926	0.248
PLEKHA5 (UniProt Q9HAU0)	0.0794	0.191	0.254
SCYL2 (UniProt Q6P3W7)	-0.414	-0.369	-0.657
WWTR1 (UniProt Q9GZV5)	0.377	-0.0845	-0.0566
NOB1 (UniProt Q9ULX3)	-0.873	-0.423	-0.679
ANKRD40 (UniProt Q6AI12)	0.146	0.246	0.087
ACSL3 (UniProt O95573)	-0.39	-0.87	-0.498
SMARCD2 (UniProt Q92925)	-0.0687	0.132	0.101
CAPN7 (UniProt Q9Y6W3)	0.922	0.28	0.65
ORC3 (UniProt Q9UBD5)	-0.00481	-0.0418	-0.104
DNPEP (UniProt Q9ULA0)	0.248	-0.183	0.0127
